One assay concerns B cells (IM9). The assay is described as follows: Inhibition of the growth of B cells (IM9). Type of assay: cell-based. The note with it: Homo sapiens, IM-9; read-out: I50, growth of IM9 cells. The protocol:
(§1) The compounds of the invention were tested for inhibition of the growth of T cells (Molt 4) and B cells (IM9) by the method of Averett, D., Journal of Virological Methods, 23, (1989), 263-276.

For the next assay, the system named is T cells (Molt 4). Put plainly: Inhibition of the growth of T cells (Molt 4). The format is cell-based. The following applies: Homo sapiens, read-out: I50, growth of Molt 4 cells. The protocol: as §1
For assay [1], the system named is Human cytomegalovirus (HCMV). The assay is described as follows: Anti-HCMV plaque reduction assay in MRC5 cells. The format is cell-based. The following applies: Human betaherpesvirus 5, read-out: IC50, anti-HCMV activity (50% inhibitory concentration). The protocol: Human cytomegalovirus (HCMV) is assayed in monolayers of MRC5 cells (human embryonic lung) in multiwell trays. Activity of compounds is determined in the plaque reduction assay, in which a cell monolayer is infected with a suspension of HCMV. A range of concentrations of the compound to be tested (of known molarity) is then incorporated into the carboxymethyl cellulose overlay. Plaque numbers of each concentration are expressed as percentage of the control and a dose-response curve is drawn. From this curve the 50% inhibitory concentration (IC50) is estimated.

In assay [2] the test system is HBV (HepG2 2.2.15, P5A cell line). The assay is described as follows: Anti-HBV assay: HBV DNA in supernatants of HBV-producing cells, immunoaffinity capture, PCR and hybrid-capture detection. The format is cell-based, Hepatitis B virus. The note with it: HepG2 2.2.15, P5A cells, compound on days 1, 3, 5, 7. The protocol: Anti-HBV activity of compounds of formula (I) and (I-1) was determined with a high-capacity assay for assessing efficacy. Supernatants from growing HBV-producing cells (HepG2 2.2.15, P5A cell line) in 96-well plates are applied to microtiter plate wells which have been coated with a specific monoclonal antibody to HBV surface antigen (HBsAg). Virus particles present in the supernatants bind to the antibody and remain immobilized while other debris is removed by washing. These virus particles are then denatured to release HBV DNA strands which are subsequently amplified by the polymerase chain reaction and detected with a colorimetric hybrid-capture assay. Quantitation is achieved through fitting of a standard curve to dilutions of a cell supernatant with known HBV DNA content. By comparing HBV DNA levels of untreated control cell supernatants with supernatants containing a compound of formula (I) or (I-1), a measure of anti-HBV effectiveness is obtained.
HBV producer cells, 2500 cells/well, were seeded in 96-well culture dishes in RPMI/10% fetal bovine serum/2 mM glutamine (RPMI/10/2:). […] Twenty-five uL HBV standard media dilutions in RPMI/10/2 were added to 2 rows of wells to serve as an internal standard curve for quantitation, and the plates were sealed and incubated at 4° C. overnight. […]
Polymerase chain reaction (Saiki, R. K. et al., Science, 239 (4839) 487-91 (1988)) was carried out on 5uL samples, using a Perkin Elmer PCR kit. […] Primers were chosen from conserved regions in the HBV genome, as determined by alignment of several sequences. […]
PCR products were detected with horse radish peroxidase-labeled oligonucleotide probes (Synthecell Corp., Rockville, Md. 20850), which hybridize to biotinylated strands of denatured PCR products directly in streptavidin-coated microtiter plate wells, using essentially the method of Holodiniy, M. et al., Bio Techniques, 12 (1) 37-39 (1992). […] Quantities of HBV DNA present in the original samples were calculated by comparison with standards. […]

Setting [3] is: Hepatitis B virus, HepG2 2.2.15, read-out: IC50 (median inhibitory concentration, 50 percent decrease in HBV DNA), approximate IC50.

pIC50: −log10 of the molar value. Like-named read-outs stand apart in the source and are kept apart here.

`OC[C@@H]1C[C@H](n2c(Br)nc3cc(Cl)c(Cl)cc32)[C@@H](O)[C@H]1O` (relative stereo) [Ex. 4, (±)-(1R*,2S*,3S*,5S*)-5-(2-Bromo-5,6-dichloro-1H-benzimidazol-1-yl)-3-(hydroxymethyl)-1,2-cyclopentanediol]: the pIC50 was 4.32 in the assay on B cells (IM9), 4.41 in the assay on T cells (Molt 4) and 5.72 in assay [1].
With `OC[C@@H]1C[C@@H](O)[C@H](n2c(Br)nc3cc(Cl)c(Cl)cc32)C1` (relative stereo) [Ex. 13, (±)-(1R*,2R*,4S*)-2-(2-Bromo-5,6-dichloro-1H-benzimidazol-1-yl)-4-(hydroxymethyl)cyclo-pentanol], the pIC50 in assay [2] (setting [3]) is 5.30; in the assay on B cells (IM9) it was 4.06; with T cells (Molt 4), 4.49; in assay [1], 6.00.
As to `OC[C@@H]1C[C@H](n2c(Br)nc3cc(Cl)c(Cl)cc32)[C@@H](O)[C@H]1O` [Ex. 69, (1R,2S,3S,5S)-5-(2-Bromo-5,6-dichloro-1H-benzimidazol-1-yl)-3-(hydroxymethyl)-1,2-cyclopentanediol], the pIC50 in assay [2] (setting [3]) is 6.14; in assay [2] (read-out: IC50 (median inhibitory concentration, 50 percent decrease in HBV DNA), approximate IC50), 5.89; in the assay with B cells (IM9), 4.46; with T cells (Molt 4) it was 4.54.
